# Measurements: patent US8207188B2, “Treatment of diseases modulated by a H4 receptor agonist” (priority 2006, dated 2012)
# Values joined by “and” are separate entries in the source; they are usually repeats but may differ in a detail not shown here. Identical values can stand only once.
# Assays:
# H4R = target: T1, H4R (Mus musculus, UniProt Q91ZY2); test: Cell cycle status after H4R silencing with siRNA; type: cell-based; settings: 10 μM; H4R siRNA transfected c-kit+ cells
# T1 construct: endogenous in cells; host or cells: freshly sorted c-kit+ haematopoietic progenitor cells
# T1 sequence (Q91ZY2 1-391): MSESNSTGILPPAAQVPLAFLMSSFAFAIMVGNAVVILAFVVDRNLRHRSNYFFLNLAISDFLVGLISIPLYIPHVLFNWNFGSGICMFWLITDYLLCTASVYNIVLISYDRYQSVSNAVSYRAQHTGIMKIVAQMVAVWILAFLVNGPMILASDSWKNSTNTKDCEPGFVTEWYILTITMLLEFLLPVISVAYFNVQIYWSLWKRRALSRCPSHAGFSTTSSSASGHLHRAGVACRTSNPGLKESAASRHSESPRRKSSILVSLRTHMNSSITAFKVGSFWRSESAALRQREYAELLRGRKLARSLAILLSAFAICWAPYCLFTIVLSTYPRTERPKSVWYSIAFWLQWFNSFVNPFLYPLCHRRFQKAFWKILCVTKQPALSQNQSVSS
# Protocol: H4R silencing was performed with freshly sorted c-kit^+ cells. For transfection, 3 μl of HiPerFect reagent (Qiagen; Courtaboeuf, France) and 4 μl ([…]) of human and 8 μl (80 pmol) of murine H4R siRNA, scrambled FITC-labeled or unconjugated control siRNAs (all from Santa Cruz Biotechnology) were incubated in 50 μl x-vivo medium (Cambrex; East Rutherford, N.J.) for 20 min at room temperature. The mixture was then added to 50 μl of cell suspension at a final concentration of 10^6 cells/ml and incubated for 20 h, when transfection efficiency was verified with scrambled FITC-conjugated siRNA. Cells were then centrifuged and resuspended at a concentration of 10^5 cells/ml in StemSpan medium with growth factor cocktail. The extinction of H4R protein expression was ascertained by FACS analysis after 24 h. After 3 days of culture with or without tritoqualine (10 μM) or Clobenpropit (10 μM) cells were counted and their viability was assessed by trypan blue exclusion. The cell cycle status was assessed after an overnight incubation.
# [1] = system: Colony Forming Cells (CFC, mouse medullary cells C57B1/6) expressing H4R; test: Cell cycle analysis of haematopoietic progenitor cells (propidium iodide, FACS); type: cell-based; settings: 10 μM
# Protocol: Haematopoietic progenitor cells were incubated for 1-3 day(s) with a cocktail of growth factors (IL-3, 10 ng/ml, IL-6 10 ng/ml), […] (50 ng/ml) in the culture medium StemSpan® (without serum) in the presence and absence of TRQ and H4R antagonist (JNJ7777120, Sigma Aldrich).
# Cells were later stained with propidium iodide (PI) for the analysis of the cell cycle according to the following protocol:
# 2×10^6 cells/ml were labelled with CD1 17-FITC for 20 min in PBS, then washed in PBS and stained with PBS 1% formaldehyde, without methanol, at 4° C. for 5 min and again washed in PBS.
# The cells were then lysed with 1 ml of PVTritonX100 and RNAse without DNAse (0.2 mcg/ml), PI (20 mcg/ml), and incubated in PBS for 30 min at ambient temperature.
# The lysed cells were analyzed with FACS scan (FL2-area IFL2-width) for cell cycle analysis and FL1 for labelling of cell Surface.
# 10^6 cells enriched in haematopoietic stem cells were incubated in 2 ml of CFSE […] in PBS 10 min, 37° C. The reaction was stopped by the addition of cold PBS in excess (5×) and centrifuged for 5 min at 1700 rpm.
# Cells were resuspended in the culture medium StemSpan® (without serum) and stimulated with the growth Factor cocktail, and analyze in FACs scan (FL1) after 72 hours incubation.
# [2] = system: human TF1 cells that express H4R; test: TF1 cell proliferation assay (GM-CSF promoted); type: cell-based
# Protocol: Tritoqualine was tested on a cell proliferation assay using human TF1 cells that express H4R.
# TF1 cell proliferation is promoted using granulocyte/macrophage colony-stimulating factor (GM-CSF). In this cell proliferation model H4R agonists inhibit cell proliferation. Clobenpropit (CB), a known H4R agonist at a dose of 10^−5M (10 μM) was used as a known cell proliferation inhibition control. […] Each experiment used 100,000 TF1 cells/mL incubated for three days with GM-CSF (10 ng/mL). After addition of TRQ in the range of 10^−5M (10 μM) to 10^−7 M (0.1 μM), and incubation for 3 days, cell proliferation was assessed and compared to that of 10 μM CB.
# [3] = Reintroduction of causal food allergen in food allergy patients; type: in vivo, human; settings: baseline patients treated with one drug alone
# Excerpt: Allergens tested came from either […], or ALLERBIO.
# The direct test with the Nutella® was strongly positive for allergy. This patient was hospitalized in two occasions for the same dramatic allergic reaction to Nutella® spread. Furthermore, the patient presented allergies to pneumoallergens.
# Continuation of the above treatment for over 8 months afforded reversal of allergic and digestive symptoms due to food allergy.
# The patient under study had survived two cases of anaphylactic shock due to ingestion of shrimps. […] Later the patient was able to ingest five shrimps without any local signs and no global reaction.
# Baseline patients had signs of food allergies and the food allergy symptoms were not adequately managed with an H1 antagonist and cromoglycate. A group of 15 patients presenting signs of food allergies is tested with allergens such as the following: peanut, milk, tomato, potato, flour of wheat, soybean, fish, and shrimp. Allergens tested came from either […], or ALLERBIO.
# All patients had history of hospitalization and reactions such as Quincke's edema and asthma crisis. Most of the causal allergens were peanut (six patients), egg (four patients) and soybean (five patients) of them (with other several positive food allergens at different degrees of reaction). […]
# [4] = Spirometry parameter FEV1 in COPD patients; type: in vivo, human; parameters: T0 (initial visit) FEV1: unit not given here
# Protocol: At the initial visit to the physician (T0), the patients were examined and the spirometry parameter FEV1 was recorded. Tritoqualine 200 mg/day were added to the patient's existing drug therapy. […] During each visit the patient's overall health and the FEV1 parameter was assessed by spirometry. […]
SMILES,activity inhibiting the cell cycle at the G0/G1 phase after H4R siRNA (H4R),haematopoietic progenitor cells blocked (G0/G1) [1],inhibition of cell proliferation ([2]; 0.1 μM),"inhibition at 10 µM ([2]; Homo sapiens, TF-1, 72 h, 10 μM, 3 days, three separate assays (n=3)) [%]","inhibition at 1 µM ([2]; Homo sapiens, TF-1, 1 μM) [%]",management of food allergy symptoms with the single drug [3],"T0 (initial visit) FEV1 ([4]; Example 12, 13 COPD patients, one line per patient, baseline before Tritoqualine)","improvement of FEV1 from visit T0 to T1 (paired t-test) ([4]; Example 12, 13 patients, P=0.0012)","Mean, Visit T1 ([4]; Example 12, N 13, 6-8 weeks of Tritoqualine 200 mg/day, FEV1 relative to expected normal value)","Mean, Visit T0 ([4]; Example 12, N 13, baseline, FEV1 relative to expected normal value)","FEV1 as percent of expected normal value ([4]; Example 12, per patient, 6-8 weeks of Tritoqualine 200 mg/day)","FEV1 as percent of expected normal value ([4]; Example 12, per patient, baseline)","T2 (6-8 weeks follow-up visit) FEV1 normalized ([4]; Example 12, per patient, Tritoqualine 200 mg/day added to existing therapy)"
CCOc1c(N)c2c(c(OCC)c1OCC)[C@@H]([C@@H]1c3c(cc4c(c3OC)OCO4)CCN1C)OC2=O [E2],reversed,Approximately 60%,–,–,–,–,–,–,–,–,–,–,–
CCOc1c(N)c2c(c(OCC)c1OCC)[C@H]([C@H]1c3c(cc4c(c3OC)OCO4)CCN1C)OC2=O [E1],reversed,Approximately 48%,–,–,–,–,–,–,–,–,–,–,–
"CCOc1c(N)c2c(c(OCC)c1OCC)C(C1c3c(cc4c(c3OC)OCO4)CCN1C)OC2=O (racemic) [Tritoqualine, 7-Amino-4,5,6-triethoxy-3-(5,6,7,8-tetrahydro-4-methoxy-6-methyl-1,3-dioxolo[4,5-g]isoquinolin-5-yl) phthalide]",–,–,no inhibition of cell proliferation,49,18,did not yield satisfactory management,1.00 (2×) and 2.39 and 1.86 (2×) and 1.60 and 1.53 and 1.64 and 1.32 and 0.82 and 0.58 and 2.28 and 1.30,statistically significant improvement,77.69,65.3,50.76% and 97.74% and 85.50% and 71.77% and 92.96% and 72.24% and 87.41% and 64.90% and 68.42% and 43.53% and 88.24% and 88.89% and 105.12%,50.76% and 89.85% and 47.33% and 76.56% and 71.83% and 62.36% and 74.07% and 53.88% and 53.95% and 34.12% and 83.82% and 72.22% and 86.51%,1.00 and 2.60 and 3.36 and 1.50 and 1.98 and 1.90 and 1.18 and 1.59 and 1.04 and 0.74 and 2.40 and 1.60 and 2.26
